Data taken from ChEMBL document CHEMBL5532643, “Design and synthesis of etrasimod derivatives as potent antibacterial agents against Gram-positive bacteria” (Eur J Med Chem, 2024).
Converted amounts (≈) assume the structure as drawn. “And” between values parts separate entries of the source, which are not always exact repeats. Equal values may be shown once.

Assays:
Assay type in all cases: functional
Staphylococcus aureus [1] = test: Antibiofilm activity against Staphylococcus aureus ATCC 25923 assessed as inhibition of biofilm viability at 100 uM incubated for 18 to 20 hrs by resazurin staining based assay; details: time 18-20 hrs
Staphylococcus aureus [2] = test: Antibacterial activity against Staphylococcus aureus ATCC 25923 assessed as inhibition of bacterial growth at 40 uM incubated for 18 to 24 hrs by broth microdilution assay relative to control; details: time 18-24 hrs
Staphylococcus aureus [3] = test: Antibiofilm activity against Staphylococcus aureus ATCC 25923 assessed as inhibition of biofilm biomass at 100 uM incubated for 18 to 20 hrs by crystal violet staining based assay; details: time 18-20 hrs
Staphylococcus aureus [4] = test: Antibacterial activity against Staphylococcus aureus ATCC 25923 assessed as reduction in bacterial growth incubated for 18 to 20 hrs by broth microdilution assay; details: time 18-20 hrs
Enterococcus faecalis [5] = test: Antibacterial activity against Enterococcus faecalis ATCC 29212 assessed as reduction in bacterial growth incubated for 18 to 20 hrs by broth microdilution assay; details: time 18-20 hrs
[6] = system: Staphylococcus epidermidis; test: Antibacterial activity against Staphylococcus epidermidis RP62A assessed as reduction in bacterial growth incubated for 18 to 20 hrs by broth microdilution assay; details: time 18-20 hrs
Staphylococcus aureus [7] = test: Antibacterial activity against […] Staphylococcus aureus ATCC 43300 assessed as reduction in bacterial growth incubated for 18 to 20 hrs by broth microdilution assay; details: time 18-20 hrs
[8] = system: Staphylococcus epidermidis; test: Antibacterial activity against […] Staphylococcus epidermidis RP62A assessed as reduction in bacterial growth incubated for 18 to 20 hrs by broth microdilution assay; details: time 18-20 hrs
Acinetobacter baumannii = test: Antibacterial activity against Acinetobacter baumannii NCTC 13423 assessed as reduction in bacterial growth incubated for 18 to 20 hrs by broth microdilution assay; details: time 18-20 hrs
Enterococcus faecium = test: Antibacterial activity against vancomycin-resistant Enterococcus faecium ATCC 700221 assessed as reduction in bacterial growth incubated for 18 to 20 hrs by broth microdilution assay; details: time 18-20 hrs
Enterococcus faecalis [9] = test: Antibacterial activity against vancomycin-resistant Enterococcus faecalis ATCC 51575 assessed as reduction in bacterial growth incubated for 18 to 20 hrs by broth microdilution assay; details: time 18-20 hrs
Pseudomonas aeruginosa = test: Antibacterial activity against Pseudomonas aeruginosa ATCC 15442 assessed as reduction in bacterial growth incubated for 18 to 20 hrs by broth microdilution assay; details: time 18-20 hrs
Staphylococcus aureus [10] = test: Antibacterial activity against Staphylococcus aureus ATCC 43300 assessed as reduction in bacterial growth incubated for 18 to 20 hrs by broth microdilution assay; details: time 18-20 hrs

| Structure (SMILES) | inhibition at 100 µM (Staphylococcus aureus [1]) [%] | inhibition at 40 µM (Staphylococcus aureus [2]) [%] | inhibition at 100 µM (Staphylococcus aureus [3]) [%] | MIC (Staphylococcus aureus [4]) | MIC (Enterococcus faecalis [5]) [µM] | MIC [6] [µM] | MIC (Staphylococcus aureus [7]) [µM] | MIC [8] [µM] | MIC (Acinetobacter baumannii) [µM] | MIC (Enterococcus faecium) [µM] | MIC (Enterococcus faecalis [9]) [µM] | MIC (Pseudomonas aeruginosa) [µM] | MIC (Staphylococcus aureus [10]) [µM] |
| --- | --- | --- | --- | --- | --- | --- | --- | --- | --- | --- | --- | --- | --- |
| NC(=O)CC1CCc2c1[nH]c1ccc(OCc3ccc(C4CCCC4)c(C(F)(F)F)c3)cc21 (configuration not stated) | > 90 | ≤ 90 | > 90 | 20 µM and 9.1 µg/mL | – | – | – | – | – | – | – | – | – |
| O=C(O)CC1CCc2c1[nH]c1ccc(OCc3ccc(C4CCCCC4)c(OC(F)(F)F)c3)cc21 (configuration not stated) | > 90 | ≤ 90 | > 90 | 5 µM and 2.4 µg/mL | 5 (≈ 2.44 µg/mL) | 10 (≈ 4.88 µg/mL) | 5 (≈ 2.44 µg/mL) | 10 (≈ 4.88 µg/mL) | > 200 | 5 (≈ 2.44 µg/mL) | 5 (≈ 2.44 µg/mL) | > 200 | 5 (≈ 2.44 µg/mL) |
| O=C(O)CC1CCc2c1[nH]c1ccc(OCc3ccc(OCC4CCCC4)c(C(F)(F)F)c3)cc21 (configuration not stated) | > 90 | ≤ 90 | > 90 | 10 µM and 4.9 µg/mL | – | – | – | – | – | – | – | – | – |
| Cc1nc(-c2ccc(C(F)(F)F)cc2)sc1COc1ccc2[nH]c3c(c2c1)CCC3CC(=O)O (configuration not stated) | > 90 | ≤ 90 | > 90 | 20 µM and 9.7 µg/mL | – | – | – | – | – | – | – | – | – |
| O=C(O)CC1CCc2c1[nH]c1ccc(OCc3ccc(C4CCCCC4)c(C(F)(F)F)c3)cc21 (configuration not stated) | > 90 | ≤ 90 | > 90 | 5 µM and 2.4 µg/mL | – | – | – | – | – | – | – | – | – |
| O=C(O)CC1CCc2c1[nH]c1ccc(OCc3ccc(C4CCCC4)cc3)cc21 (configuration not stated) | > 90 | ≤ 90 | > 90 | 20 µM and 7.8 µg/mL | – | – | – | – | – | – | – | – | – |
| O=C(O)Cc1c[nH]c2ccc(OCc3ccc(C4CCCC4)c(C(F)(F)F)c3)cc12 | > 90 | ≤ 90 | > 90 | 20 µM and 8.3 µg/mL | – | – | – | – | – | – | – | – | – |
| N#Cc1cc(COc2ccc3[nH]c4c(c3c2)CCC4CC(=O)O)ccc1C1CCCC1 (configuration not stated) | > 90 | ≤ 90 | > 90 | 40 µM and 16.6 µg/mL | – | – | – | – | – | – | – | – | – |
| O=C(O)CC1CCc2c1[nH]c1ccc(OCc3ccc(-c4ccc(Cl)s4)c(C(F)(F)F)c3)cc21 (configuration not stated) | > 90 | ≤ 90 | > 90 | 5 µM and 2.5 µg/mL | – | – | – | – | – | – | – | – | – |
| O=C(O)CC1CCCc2c1[nH]c1ccc(OCc3ccc(C4CCCC4)c(C(F)(F)F)c3)cc21 (configuration not stated) | > 90 | ≤ 90 | > 90 | 5 µM and 2.4 µg/mL | 5 (≈ 2.36 µg/mL) | 10 (≈ 4.72 µg/mL) | 5 (≈ 2.36 µg/mL) | 5 (≈ 2.36 µg/mL) | > 200 | 5 (≈ 2.36 µg/mL) | 10 (≈ 4.72 µg/mL) | > 200 | 5 (≈ 2.36 µg/mL) |
| Cc1[nH]c2ccc(OCc3ccc(C4CCCC4)c(C(F)(F)F)c3)cc2c1CC(=O)O | > 90 | ≤ 90 | > 90 | 20 µM and 8.6 µg/mL | – | – | – | – | – | – | – | – | – |
| CS(=O)(=O)NC(=O)CC1CCc2c1[nH]c1ccc(OCc3ccc(C4CCCC4)c(C(F)(F)F)c3)cc21 (configuration not stated) | > 90 | ≤ 90 | > 90 | 5 µM and 2.7 µg/mL | 5 (≈ 2.67 µg/mL) | 10 (≈ 5.35 µg/mL) | 5 (≈ 2.67 µg/mL) | 10 (≈ 5.35 µg/mL) | > 200 | 10 (≈ 5.35 µg/mL) | 5 (≈ 2.67 µg/mL) | > 200 | 5 (≈ 2.67 µg/mL) |
| O=C(O)c1cc2cc(OCc3ccc(C4CCCC4)c(C(F)(F)F)c3)ccc2[nH]1 | > 90 | ≤ 90 | > 90 | 5 µM and 2 µg/mL | 10 (≈ 4.03 µg/mL) | 5 (≈ 2.02 µg/mL) | 5 (≈ 2.02 µg/mL) | 2.5 (≈ 1.01 µg/mL) | > 200 | 10 (≈ 4.03 µg/mL) | 10 (≈ 4.03 µg/mL) | > 200 | 5 (≈ 2.02 µg/mL) |
| O=C(O)Cc1ccc(OCc2ccc(C3CCCC3)c(C(F)(F)F)c2)cn1 | > 90 | ≤ 90 | > 90 | > 40 µM and > 15.2 µg/mL | – | – | – | – | – | – | – | – | – |
| O=C(O)CC1CCc2c1[nH]c1ccc(OCc3ccc(C4CCCC4)c(OC(F)(F)F)c3)cc21 (configuration not stated) | > 90 | ≤ 90 | > 90 | 5 µM and 2.4 µg/mL | – | – | – | – | – | – | – | – | – |
| CC(C)Cc1ccc(COc2ccc3[nH]c4c(c3c2)CCC4CC(=O)O)cc1C(F)(F)F (configuration not stated) | > 90 | ≤ 90 | > 90 | 10 µM and 4.5 µg/mL | – | – | – | – | – | – | – | – | – |

| Structure (SMILES) | inhibition at 100 µM (Staphylococcus aureus [1]) [%] | inhibition at 40 µM (Staphylococcus aureus [2]) [%] | inhibition at 100 µM (Staphylococcus aureus [3]) [%] | MIC (Staphylococcus aureus [4]) | MIC (Enterococcus faecalis [5]) [µM] | MIC [6] [µM] | MIC (Staphylococcus aureus [7]) [µM] | MIC [8] [µM] | MIC (Acinetobacter baumannii) [µM] | MIC (Enterococcus faecium) [µM] | MIC (Enterococcus faecalis [9]) [µM] | MIC (Pseudomonas aeruginosa) [µM] | MIC (Staphylococcus aureus [10]) [µM] |
| --- | --- | --- | --- | --- | --- | --- | --- | --- | --- | --- | --- | --- | --- |
| O=C(O)CC1CCc2c1[nH]c1ccc(OCc3cccc(C(F)(F)F)c3)cc21 (configuration not stated) | > 90 | ≤ 90 | > 90 | > 40 µM and > 15.6 µg/mL | – | – | – | – | – | – | – | – | – |
| O=C(O)CC1CCc2c1[nH]c1ccc(OCc3ccc(N4CCOCC4)c(C(F)(F)F)c3)cc21 (configuration not stated) | > 90 | ≤ 90 | > 90 | > 40 µM and > 19 µg/mL | – | – | – | – | – | – | – | – | – |
| O=C(O)CC1CCc2c1[nH]c1ccc(OCc3noc(-c4ccc(C(F)(F)F)cc4)n3)cc21 (configuration not stated) | > 90 | ≤ 90 | > 90 | > 40 µM and > 18.3 µg/mL | – | – | – | – | – | – | – | – | – |
| O=C(O)CC1CCc2c1[nH]c1ccc(OCc3ccc(-c4cccs4)c(C(F)(F)F)c3)cc21 (configuration not stated) | > 90 | ≤ 90 | > 90 | 10 µM and 4.7 µg/mL | – | – | – | – | – | – | – | – | – |
| O=C(O)CCc1c[nH]c2ccc(OCc3ccc(C4CCCC4)c(C(F)(F)F)c3)cc12 | > 90 | ≤ 90 | > 90 | 20 µM and 8.6 µg/mL | – | – | – | – | – | – | – | – | – |
| CCOC(=O)CC1CCc2c1[nH]c1ccc(OCc3ccc(C4CCCC4)c(C(F)(F)F)c3)cc21 (configuration not stated) | > 90 | ≤ 90 | > 90 | > 40 µM and > 19.4 µg/mL | – | – | – | – | – | – | – | – | – |
| O=C(O)CC1CCc2c1[nH]c1ccc(OCc3ccc(C4CCCC4)c(C(F)(F)F)c3)cc21 (racemic) | > 90 | ≤ 90 | > 90 | 5 µM and 2.3 µg/mL | – | – | – | – | – | – | – | – | – |
| O=C(O)Cn1ccc2cc(OCc3ccc(C4CCCC4)c(C(F)(F)F)c3)ccc21 | > 90 | ≤ 90 | > 90 | 20 µM and 8.3 µg/mL | – | – | – | – | – | – | – | – | – |
| O=C(O)CC1CCc2c1[nH]c1ccc(OCc3ccc(C4CCCC4)c(F)c3)cc21 (configuration not stated) | > 90 | ≤ 90 | > 90 | 10 µM and 4.1 µg/mL | – | – | – | – | – | – | – | – | – |
| O=C(O)Cc1c[nH]c2ccc(OCc3ccc(C4CCCCC4)c(C(F)(F)F)c3)cc12 | > 90 | ≤ 90 | > 90 | 10 µM and 4.3 µg/mL | 20 (≈ 8.63 µg/mL) | 10 (≈ 4.31 µg/mL) | 10 (≈ 4.31 µg/mL) | 10 (≈ 4.31 µg/mL) | > 200 | 20 (≈ 8.63 µg/mL) | 20 (≈ 8.63 µg/mL) | > 200 | 10 (≈ 4.31 µg/mL) |
| O=C(O)c1ccc(OCc2ccc(C3CCCC3)c(C(F)(F)F)c2)cn1 | > 90 | ≤ 90 | > 90 | 10 µM and 3.7 µg/mL | 10 (≈ 3.65 µg/mL) | 5 (≈ 1.83 µg/mL) | 5 (≈ 1.83 µg/mL) | 10 (≈ 3.65 µg/mL) | > 200 | 20 (≈ 7.31 µg/mL) | 20 (≈ 7.31 µg/mL) | > 200 | 5 (≈ 1.83 µg/mL) |
| CCCCc1ccc(COc2ccc3[nH]c4c(c3c2)CCC4CC(=O)O)cc1C(F)(F)F (configuration not stated) | > 90 | ≤ 90 | > 90 | 10 µM and 4.5 µg/mL | – | – | – | – | – | – | – | – | – |
| CC(=O)NC[C@H]1CN(c2ccc(N3CCOCC3)c(F)c2)C(=O)O1 [LINEZOLID] | – | – | – | – | 5 (≈ 1.69 µg/mL) | – | – | – | – | 5 (≈ 1.69 µg/mL) | 5 (≈ 1.69 µg/mL) | – | – |
| FC(F)(F)c1cc(COc2ccc3[nH]ccc3c2)ccc1C1CCCC1 | > 90 | ≤ 90 | > 90 | > 40 µM and > 14.4 µg/mL | – | – | – | – | – | – | – | – | – |
| CCCCCCCCOc1ccc2[nH]c3c(c2c1)CCC3CC(=O)O (configuration not stated) | > 90 | ≤ 90 | > 90 | 40 µM and 13.7 µg/mL | – | – | – | – | – | – | – | – | – |
